Drawing on patent US8735584B2 (Merck Patent GmbH, priority 2008, dated 2014), this text covers inhibition and IC50 for 27 compounds.

The first assay has as its target T1, AurA (Homo sapiens, UniProt O14965).
T1 construct: purchased Caliper Life Sciences
T1 sequence (O14965 1-403): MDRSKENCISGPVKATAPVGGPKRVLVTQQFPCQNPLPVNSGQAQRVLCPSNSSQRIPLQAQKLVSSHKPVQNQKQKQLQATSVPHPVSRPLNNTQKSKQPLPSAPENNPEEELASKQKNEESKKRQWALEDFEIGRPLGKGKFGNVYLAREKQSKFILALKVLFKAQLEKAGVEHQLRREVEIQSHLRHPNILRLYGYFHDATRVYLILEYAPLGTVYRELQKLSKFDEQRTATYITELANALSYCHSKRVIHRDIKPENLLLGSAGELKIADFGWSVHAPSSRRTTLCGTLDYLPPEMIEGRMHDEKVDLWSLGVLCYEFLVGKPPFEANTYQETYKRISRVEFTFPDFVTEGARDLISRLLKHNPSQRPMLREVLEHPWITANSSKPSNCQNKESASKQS
The assay can be described thus: Desktop Profiler kinase panel, AurA. To be noted: 1 micromolar concentration of the compound. The format is biochemical. The protocol: The Aurora assays described here are performed on two Caliper Life Sciences systems: the LC3000 and the Desktop Profiler. These provide data on enzyme activity via measurement of the relative amounts of phosphorylated or unphosphorylated fluorescently labelled substrate peptide at the end of an enzymatic reaction. These different states of peptide are resolved by applying a potential difference across the sample. The presence of the charged phosphate group on the product (as opposed to the substrate) causes a different peptide mobility between the two peptides. This is visualized by excitation of the fluorescent label on the substrate and product peptides and represented as peaks within the analysis software.
The Desktop Profiler utilizes the same principle as the LC3000 for calculating percentage conversion of a substrate to product. Caliper Life Sciences provides proprietary flash frozen pre-made 384 well plates containing selected kinases. Each column in the 384 well plate contains a particular selected kinase. A second plate, the ‘substrate plate’ contains a mix of fluorescently labeled peptide substrate and ATP. These are arranged in columns so that transfer for substrate plate to enzyme plate provides the correct enzyme with the correct substrate/ATP concentration. Compounds are added to a thawed enzyme plate in the desired format, in single concentrations. Reactions are initiated by transfer of the substrate/ATP mix from the substrate plate. The enzyme plate is incubated for 90 mins at 25 C. The reaction is stopped by addition of 70 ul of Stop Buffer (100 mM HEPES pH 7.5, 0.015% Brij-35, 10 mM EDTA (Sigma, E7889)).
Reading of the plate in the Profiler is identical to the LC3000, and the ratio between substrate and product peaks provides the activity of the enzyme in that well. This is best represented by a plate heat map which colors each well by percent inhibition as compared to positive and negative controls (no inhibitors and no ATP respectively).
In the following Tables 3a-4-b, which show the results of the desktop profiler measurements, “+” means 50-70% inhibition, “++” means 70-90% inhibition, and “+++” means >90% inhibition. The enzymes tested for profiling were ABL, AKT1, AKT2, AurA, CHK1, CHK2, CK1d, Erk1, Erk2, FYN, GSK3b, INSR, LCK, LYN, MAPKAPK2, MET, MSK1, p38a, PKA, PKCz, PKD2, PRAK, RSK1 and SRC.
The compound `COc1ccccc1CNc1ccc2c(=O)[nH]c3ncccc3c2c1` [Example 34, 9-(2-Methoxy-benzylamino)-5H-benzo[c][1,8]naphthyridin-6-one] returned an inhibition at 1 µM greater than 90%.

In turn, `COc1ccc(CNc2ccc3c(=O)[nH]c4ncccc4c3c2)cc1` [Example 33, 9-(4-Methoxy-benzylamino)-5H-benzo[c][1,8]naphthyridin-6-one] displayed an inhibition at 1 µM of 50 to 70%.

As for `O=c1[nH]c2ncccc2c2cc(NCc3ccccc3)ccc12` [Example 25, 9-Benzylamino-5H-benzo[c][1,8]naphthyridin-6-one], the inhibition at 1 µM lay in the range of 70 to 90%.

Turning to `COc1ccc(Nc2ccc3c(=O)[nH]c4ncccc4c3c2)cc1` [Example 29, 9-(4-Methoxy-phenylamino)-5H-benzo[c][1,8]naphthyridin-6-one], the inhibition at 1 µM lay in the range of 50 to 70%.

Still in this assay, the particulars now being: 10 micromolar concentration of the compound; read-out: Percent Inhibition AurA.
Turning to `O=c1[nH]c2ncccc2c2cc(Cl)ccc12` [Example 6, 9-Chloro-5H-benzo[c][1,8]naphthyridin-6-one], the inhibition at 10 µM lay in the range of 50 to 70%.

Take `COc1ccc(CNc2ccc3c(=O)[nH]c4ncccc4c3c2)cc1` [Example 33, 9-(4-Methoxy-benzylamino)-5H-benzo[c][1,8]naphthyridin-6-one]: the inhibition at 10 µM is 70 to 90%.

In the case of `COc1cccc(CNc2cnc3[nH]c(=O)c4ccccc4c3c2)c1` [Example 38, 2-(3-Methoxy-benzylamino)-5H-benzo[c][1,8]naphthyridin-6-one], the inhibition at 10 µM was 50 to 70%.

Consider `COc1ccccc1CNc1cnc2[nH]c(=O)c3ccccc3c2c1` [Example 39, 2-(2-Methoxy-benzylamino)-5H-benzo[c][1,8]naphthyridin-6-one], for which the inhibition at 10 µM was in the range of 50 to 70%.

For the compound `COc1ccc(Nc2ccc3c(=O)[nH]c4ncccc4c3c2)cc1` [Example 29, 9-(4-Methoxy-phenylamino)-5H-benzo[c][1,8]naphthyridin-6-one], the inhibition at 10 µM lay within 70 to 90%.

With `COc1ccc(CNc2cnc3[nH]c(=O)c4ccccc4c3c2)cc1` [Example 37, 2-(4-Methoxy-benzylamino)-5H-benzo[c][1,8]naphthyridin-6-one], the inhibition at 10 µM is 50 to 70%.

Turning to `O=c1[nH]c2ncc(Cl)cc2c2ccccc12` [Example 9, 2-Chloro-5H-benzo[c][1,8]naphthyridin-6-one], the inhibition at 10 µM lay in the range of 50 to 70%.

For `Nc1ccnc2[nH]c(=O)c3ccccc3c12` [Example 141, 1-Amino-5H-benzo[c][1,8]naphthyridin-6-one], the inhibition at 10 µM is 50 to 70%.

For a further assay, the target named is T2, GST-Aurora A (Homo sapiens, UniProt O14965).
T2 construct: N-terminal GST fusion with full length Aurora A (1-403 amino acids); purchased Carna Biosciences 05-101
T2 sequence (O14965 1-403): T1 sequence (O14965 1-403)
The assay can be described thus: Aurora A IC50, Caliper LC3000 mobility shift assay. The format is biochemical. To be noted: LC3000 method; 15 uM ATP (the KM value); read-out: Aurora Kinase A Activity (IC50). Put shortly:
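Readout: percent conversion of FITC-LRRASLG (1 uM) to phosphopeptide, resolved electrophoretically on a Caliper LC3000, fitted against inhibitor concentration for IC50. Reaction: N-terminal GST full-length Aurora A, ATP at its KM (15 uM), pH 7.5 HEPES with MgCl2/DTT, 25 C for 90 min.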
Turning to `COc1ccccc1CNc1ccc2c(=O)[nH]c3ncccc3c2c1` [Example 34, 9-(2-Methoxy-benzylamino)-5H-benzo[c][1,8]naphthyridin-6-one], the IC50 is greater than 100 nM.

Turning to `O=c1[nH]c2ncccc2c2cc(NCc3ccccc3)ccc12` [Example 25, 9-Benzylamino-5H-benzo[c][1,8]naphthyridin-6-one], the IC50 was greater than 100 nM.

Regarding `COc1ccc(Nc2ccc3c(=O)[nH]c4ncccc4c3c2)cc1` [Example 29, 9-(4-Methoxy-phenylamino)-5H-benzo[c][1,8]naphthyridin-6-one], the half-maximal inhibitory concentration (IC50) was greater than 100 nM.

In the case of `O=C(Nc1ccc(Nc2ccnc3[nH]c(=O)c4ccccc4c23)cn1)c1ccccc1` [Compound 324, N-(5-(6-Oxo-5,6-dihydrobenzo[c][1,8]naphthyridin-1-ylamino)pyridin-2-yl)benzamide], the half-maximal inhibitory concentration (IC50) is 11 to 100 nM.

`O=C(Nc1ccc(Nc2ccnc3[nH]c(=O)c4ccc(F)cc4c23)c(F)c1)c1ccc(F)cc1C(F)(F)F` [Compound 420, 4-Fluoro-N-[3-fluoro-4-(9-fluoro-6-oxo-5,6-dihydro-benzo[c][1,8]naphthyridin-1-ylamino)-phenyl]-2-trifluoromethyl-benzamide]: the IC50 was less than 11 nM.

Regarding `NCCNC(=O)c1ccc2c(=O)[nH]c3nccc(Nc4ccc(NC(=O)c5ccccc5)cc4)c3c2c1` [Compound 284, N-(2-Aminoethyl)-1-(4-benzamidophenylamino)-6-oxo-5,6-dihydrobenzo[c][1,8]naphthyridine-9-carboxamide], the IC50 was less than 11 nM.

With `O=C(Cc1cc(Nc2ccnc3[nH]c(=O)c4ccccc4c23)n[nH]1)Nc1cccc(F)c1` [Compound 314, N-(3-Fluorophenyl)-2-(3-(6-oxo-5,6-dihydrobenzo[c][1,8]naphthyridin-1-ylamino)-1H-pyrazol-5-yl)acetamide], the half-inhibitory concentration (IC50) is greater than 100 nM.

As for `O=C(Nc1ccccc1)c1ccc(Nc2ccnc3[nH]c(=O)c4ccccc4c23)cc1` [Compound 317, 4-(6-Oxo-5,6-dihydrobenzo[c][1,8]naphthyridin-1-ylamino)-N-phenylbenzamide], the concentration for half-maximal inhibition (IC50) is greater than 100 nM.

`COC(=O)c1ccc2c(c1)c(=O)[nH]c1nccc(Nc3ccc(NC(=O)c4ccccc4)cc3)c12` [Compound 267, Methyl 1-(4-benzamidophenylamino)-6-oxo-5,6-dihydrobenzo[c][1,8]naphthyridine-8-carboxylate]: the 50% inhibitory concentration (IC50) was less than 11 nM.

With `O=c1[nH]c2nccc(Nc3ccc(OCc4cccc(F)c4)cc3)c2c2ccccc12` [Compound 330, 1-(4-(3-Fluorobenzyloxy)phenylamino)benzo[c][1,8]naphthyridin-6(5H)-one], the IC50 fell in the range of 11 to 100 nM.

On to `O=c1[nH]c2ncccc2c2cc(NCc3c(F)cccc3C(F)(F)F)ccc12` [Compound 461, 9-(2-Fluoro-6-(trifluoromethyl)benzylamino)benzo[c][1,8]naphthyridin-6(5H)-one], for which the IC50 is greater than 100 nM.

On to `O=C(Nc1ccc(Oc2ccnc3[nH]c(=O)c4ccccc4c23)cc1)c1cccn(-c2ccc(F)cc2)c1=O` [Example 181, 1-(4-Fluoro-phenyl)-2-oxo-1,2-dihydro-pyridine-3-carboxylic acid [4-(6-oxo-5,6-dihydro-benzo[c][1,8]naphthyridin-1-yloxy)-phenyl]-amide], for which the IC50 was greater than 100 nM.

Regarding `O=C(Nc1ccc(Nc2ccnc3[nH]c(=O)c4ccc(C(F)(F)F)cc4c23)cc1)c1ccccc1` [Compound 403, N-[4-(9-Trifluoromethyl-6-oxo-5,6-dihydro-benzo[c][1,8]naphthyridin-1-ylamino)-phenyl]-benzamide], the half-maximal inhibitory concentration (IC50) is less than 11 nM.

For `O=C(Nc1ccccc1Nc1ccnc2[nH]c(=O)c3ccccc3c12)c1ccccc1` [Compound 392, N-[2-(6-Oxo-5,6-dihydro-benzo[c][1,8]naphthyridin-1-ylamino)-phenyl]-benzamide], the IC50 is greater than 100 nM.

For the compound `O=C(Nc1ccc(Nc2ccnc3[nH]c(=O)c4ccccc4c23)cc1)c1cccc2c1OCC2` [Compound 433, 2,3-Dihydro-benzofuran-7-carboxylic acid [4-(6-oxo-5,6-dihydro-benzo[c][1,8]naphthyridin-1-ylamino)-phenyl]-amide], the IC50 lay within 11 to 100 nM.

For the compound `O=c1[nH]c2nccc(Nc3ccc4c(cnn4Cc4ccccc4)c3)c2c2ccccc12` [Compound 333, 1-(1-Benzyl-1H-indazol-5-ylamino)benzo[c][1,8]naphthyridin-6(5H)-one], the IC50 was 11 to 100 nM.

With `O=C(NCC(O)CO)c1ccc2c(c1)c(=O)[nH]c1nccc(Nc3ccc(NC(=O)c4ccccc4)cc3)c12` (centres unmarked) [Compound 272, 1-(4-Benzamidophenylamino)-N-(2,3-dihydroxypropyl)-6-oxo-5,6-dihydrobenzo[c][1,8]naphthyridine-8-carboxamide], the IC50 is less than 11 nM.

For `O=C(CN1CC(Nc2ccnc3[nH]c(=O)c4ccccc4c23)C1)Nc1ccccc1` [Compound 370, 2-(3-(6-Oxo-5,6-dihydrobenzo[c][1,8]naphthyridin-1-ylamino)azetidin-1-yl)-N-phenylacetamide], the concentration for half-maximal inhibition (IC50) is greater than 100 nM.

For the compound `O=C(Nc1ccc(Nc2ccnc3[nH]c(=O)c4ccccc4c23)cc1)c1c(F)cccc1F` [Compound 388, 2,6-Difluoro-N-[4-(6-oxo-5,6-dihydro-benzo[c][1,8]naphthyridin-1-ylamino)-phenyl]-benzamide], the IC50 was less than 11 nM.

For the compound `Cc1cc(Nc2ccnc3[nH]c(=O)c4ccccc4c23)n(CC(=O)Nc2ccc(F)c(F)c2)n1` [Compound 309, N-(3,4-difluorophenyl)-2-(3-methyl-5-(6-oxo-5,6-dihydrobenzo[c][1,8]naphthyridin-1-ylamino)-1H-pyrazol-1-yl)acetamide], the IC50 is greater than 100 nM.

What is called inhibition is the drop in the measured response relative to a control, in per cent. What is called IC50 is the concentration that gives 50% inhibition.
